Experiment: xn = mol fraction of the nth substance listed
Settings: 101 kPa, Liquid; for viscosity: Capillary tube (Ostwald / Ubbelohde) method; for speed of sound: Sing-around technique in a fixed-path interferometer

CC(C)CCCC(C)CCCC(C)CCCCC(C)CCCC(C)CCCC(C)C (stereo not given) [2,6,10,15,19,23-hexamethyltetracosane] + CCCCO
Settings	speed of sound, 298.15 K [m/s]	speed of sound, 303.15 K [m/s]	speed of sound, 308.15 K [m/s]	viscosity, 298.15 K [mPa·s]	viscosity, 303.15 K [mPa·s]	viscosity, 308.15 K [mPa·s]
x2 = 0	1381.9	1364.1	1346.5	28.26	22.09	17.77
x2 = 0.0451	1379.5	1361.7	1343	26.66	20.88	16.81
x2 = 0.1077	1376.1	1358.3	1340.2	24.69	19.42	15.62
x2 = 0.1346	1374.8	1356.5	1338.9	23.92	18.86	15.16
x2 = 0.1888	1371.7	1353.8	1335.9	22.48	17.78	14.29
x2 = 0.2231	1369.7	1351.8	1333.9	21.62	17.14	13.79
x2 = 0.3059	1365.1	1347.1	1329.3	19.67	15.64	12.62
x2 = 0.4052	1358.8	1340.8	1322.8	17.39	13.9	11.38
x2 = 0.5039	1350.9	1332.6	1314.8	15.11	12.14	9.903
x2 = 0.6118	1340.5	1322.5	1304.6	12.47	10.12	8.307
x2 = 0.7056	1328.8	1310.9	1293.1	10.06	8.276	6.824
x2 = 0.7998	1312.5	1294.8	1277.1	7.573	6.348	5.267
x2 = 0.8546	1299.5	1281.8	1264.2	6.128	5.2	4.344
x2 = 0.9035	1284.3	1266.8	1249.1	4.873	4.186	3.527
x2 = 0.9669	1258.5	1241.4	1224.4	3.325	2.912	2.497

mass density [kg/m3], Vibrating tube method
Settings	298.15 K	303.15 K	308.15 K
x2 = 0	805.122	801.912	798.709
x2 = 0.0451	804.881	801.658	798.397
x2 = 0.1077	804.649	801.402	798.084
x2 = 0.1346	804.573	801.318	797.991
x2 = 0.1888	804.447	801.16	797.826
x2 = 0.2231	804.377	801.07	797.731
x2 = 0.3059	804.273	800.898	797.543
x2 = 0.4052	804.097	800.714	797.32
x2 = 0.5039	803.949	800.528	797.098
x2 = 0.6118	803.817	800.347	796.857
x2 = 0.7056	803.732	800.179	796.621
x2 = 0.7998	803.836	800.194	796.558
x2 = 0.8546	803.989	800.335	796.66
x2 = 0.9035	804.336	800.708	796.979
x2 = 0.9669	805.126	801.896	798.06

CCCCCCCCCCCCCCCC [hexadecane] + CCCCO
Settings	mass density, 298.15 K [kg/m3]	mass density, 303.15 K [kg/m3]	mass density, 308.15 K [kg/m3]	speed of sound, 298.15 K [m/s]	speed of sound, 303.15 K [m/s]	speed of sound, 308.15 K [m/s]	viscosity, 298.15 K [mPa·s]	viscosity, 303.15 K [mPa·s]	viscosity, 308.15 K [mPa·s]
x2 = 0	770.456	766.981	763.52	1338.6	1320	1301.7	3.041	2.706	2.409
x2 = 0.0899	770.953	767.402	763.863	1332.4	1313.4	1294.9	2.957	2.6	2.302
x2 = 0.1048	771.053	767.499	763.961	1331.2	1312.2	1293.8	2.937	2.582	2.287
x2 = 0.1516	771.517	767.916	764.36	1328.2	1309.2	1290.3	2.899	2.546	2.254
x2 = 0.2017	772.074	768.482	764.874	1324.9	1305.8	1287.3	2.846	2.515	2.223
x2 = 0.2494	772.705	769.093	765.462	1321.9	1302.9	1284.4	2.811	2.478	2.189
x2 = 0.3382	774.083	770.439	766.796	1315.8	1296.9	1278.2	2.753	2.432	2.146
x2 = 0.4147	775.524	771.883	768.201	1310.6	1291.6	1273.1	2.704	2.394	2.112
x2 = 0.5057	777.651	773.952	770.24	1303.9	1285.5	1266.9	2.665	2.344	2.068
x2 = 0.5845	779.95	776.223	772.472	1297.6	1279.2	1260.9	2.635	2.306	2.029
x2 = 0.698	784.249	780.452	776.653	1287.4	1269.2	1251.1	2.594	2.256	1.99
x2 = 0.7945	789.246	785.434	781.597	1276.8	1258.5	1240.6	2.568	2.223	1.96
x2 = 0.8497	792.847	789.093	785.172	1269.5	1251.4	1233.7	2.558	2.218	1.953
x2 = 0.8963	796.346	792.717	788.76	1262.7	1244.8	1227.4	2.551	2.219	1.948
x2 = 0.953	801.232	797.973	794.054	1252.3	1235.8	1218.5	2.556	2.228	1.953

Source: the NIST ThermoML archive (doi:10.1021/je7007654)
